Data on 71 compounds can be found in PubChem BioAssay AID651703 (Broad Institute, 2012).

SMILES strings stand for the structures.

This experiment deals with Transforming acidic coiled-coil-containing protein 3 (Homo sapiens) (UniProt Q9Y6A5). Put plainly: ARNT/TACC3 interaction disruptors, potency, confirmation, biochemical, AlphaScreen, cherry-picked samples (AID 651703).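 Also: TACC3 partner is the GST-tagged E629A mutant dimer; hits lower the signal meaning they disrupt ARNT binding to TACC3.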 To be noted: AlphaScreen His-ARNT PAS-B / GST-TACC3 binding, luminescence.
In the case of `O=C(C1CCCC1)N1C[C@@H]2[C@H](c3ccccc31)[C@H](CO)N2C(=O)Cc1ccccn1`, the AC50 is 67.4 µM.
The same measure for `O=C(Oc1cccc2cccnc12)c1ccco1`: 9.83 µM.
The same measure for `O=C(CSc1nnc(CNC(=O)c2ccc(F)cc2)o1)Nc1nccs1`: 61.9 µM; for `Oc1c(C(c2ccc(Cl)cc2)N2CCCC2)cc(Cl)c2cccnc12` (stereo unspecified): 1.36 µM; for `O=C(Nc1ccccc1C(=O)Nc1ccccc1C(=O)O)c1ccccc1`: 65.3 µM.
On to `CNc1ccc2nc3ccccc3[n+](C)c2c1`, for which the AC50 is 29.9 µM.
Regarding `CCc1cc(C(=O)Nc2nc(-c3ccccn3)cs2)sc1C`, the AC50 was 22.9 µM.
The same measure for `O=C(O)c1ncn(Cc2ccccc2)c1C(=O)O`: 13.8 µM; for `CC(Oc1cccc(Cl)c1)C(=O)Nc1nc(-c2ccccn2)cs1` (stereo unspecified): 18 µM.
As for `Cc1nc2ccccc2n1CC(=O)c1ccc(O)c(O)c1`, the figure is 49.8 µM; as for `COc1cc2c(cc1O)C[C@H]1NCCc3cc4c(c-2c31)OCO4`, 27.7 µM; as for `Cc1cc(NC(c2cccnc2)c2ccc3cccnc3c2O)no1` (stereo unspecified), 1.02 µM.
The same measure for `C/C=C/c1ccc([C@H]2[C@@H](CO)N(Cc3ccccn3)[C@H]2CNC(=O)CC)cc1`: 66.7 µM; for `O=C(CSc1cccc2cccnc12)N1CCCC1`: 3.28 µM; for `O=S(=O)(N[C@H]1CC[C@@H](CCn2cc(-c3ccccn3)nn2)O[C@@H]1CO)c1cccc(Cl)c1`: 16.9 µM.
As to `CCC(C)c1c(N)n(S(=O)(=O)c2ccc(C)cc2)oc1=O` (stereo unspecified), the AC50 was 44.1 µM.
Regarding `Clc1cccc(-c2ccc(CNCc3ccccn3)o2)c1`, the AC50 is 21.2 µM.
The same measure for `NC1=CC(=O)C(=O)c2ccccc21`: 38.9 µM; for `O=C(N[C@H]1CC[C@H](CCn2cc(-c3ccccn3)nn2)O[C@H]1CO)c1cccnc1`: 24.8 µM.
The same measure for `Clc1ccc(-c2ccc(CNCc3ccccn3)o2)cc1`: 20 µM.
The same measure for `O=C(N/N=C/c1ccccc1O)C1SCCCS1`: 22.6 µM.
Turning to `C[C@@H]1CN([C@H](C)CO)C(=O)c2cc(NC(=O)Nc3ccc(C(F)(F)F)cc3)ccc2O[C@@H](C)CCCCO[C@H]1CN(C)Cc1ccc2c(c1)OCO2`, the AC50 is 64.9 µM.
With `C/C(=N\NC(=O)C(C)Oc1ccc([N+](=O)[O-])cc1)c1ccccn1` (stereo unspecified), the AC50 is 4.39 µM.
Consider `CCN(CC)c1ccc(/C=N/NC(=O)c2cnccn2)c(O)c1`, for which the AC50 is 11.3 µM.
The same measure for `CC(C)C(=O)NC(c1ccco1)c1ccc2cccnc2c1O` (stereo unspecified): 0.957 µM; for `O=C(NCCCn1ccnc1)C(=O)NCC1OCCN1S(=O)(=O)c1ccc(Cl)cc1` (stereo unspecified): 10.8 µM; for `Cc1n[nH]c(=O)nc1N/N=C/c1ccco1`: 42.5 µM.
As for `c1ccc(CSc2ccc(-c3ccccn3)nn2)nc1`, the figure is 0.895 µM; as for `CC(=O)N1CCc2[nH]c3ccc(C)cc3c2C1`, 13.9 µM; as for `Cc1cccc(S(=O)(=O)N[C@H]2CC[C@@H](CCn3cc(-c4ccccn4)nn3)O[C@@H]2CO)c1`, 24.3 µM.
With `CCCC(=O)NC(c1cccs1)c1cc([N+](=O)[O-])c2cccnc2c1O` (stereo unspecified), the AC50 is 3.51 µM.
The same measure for `COc1cc(CCNC2=CC(=O)c3ncccc3C2=O)ccc1O`: 34.8 µM; for `COc1ccc(Nc2cc3n(c(=O)n2)CCc2cc(OC)c(OC)cc2-3)cc1`: 68.6 µM; for `CCC(=O)NC(c1ccc(C)cc1)c1cc([N+](=O)[O-])c2cccnc2c1O` (stereo unspecified): 3.54 µM.
As for `CO[C@@H]1CN(C)C(=O)c2cc(NS(=O)(=O)CC(F)(F)F)ccc2OC[C@@H](C)N(C(=O)c2ccc3c(c2)OCO3)C[C@@H]1C`, the figure is 58 µM; as for `COc1cc(CNCc2ccccn2)ccc1OCc1ccc(Cl)cc1`, 60.7 µM.
As for `COc1ccc(-c2nc(C#N)c(N3CCCCC3)o2)cc1`, the figure is 32.2 µM; as for `O=C(N[C@H]1CC[C@@H](CCn2cc(-c3ccccn3)nn2)O[C@@H]1CO)c1cccnc1`, 9.19 µM; as for `O=C(CN1CC(=O)Oc2ccccc21)OCC(=O)c1ccccc1`, 1.1 µM.
Take `O=S(=O)(N[C@@H]1CCCN(Cc2ccc(OCCO)cc2)C1)c1cccc2cccnc12`: the AC50 was 16.2 µM.
As for `CC(=O)OC[C@H]1O[C@@H](Sc2cccc3cccnc23)[C@H](OC(C)=O)[C@@H](OC(C)=O)[C@H]1OC(C)=O`, the figure is 11.5 µM.
As for `O=C(N[C@H]1CC[C@H](CCn2cc(-c3ccccn3)nn2)O[C@@H]1CO)c1ccc(F)cc1`, the AC50 was 23.1 µM.
The same measure for `CO[C@@H]1CN(C)C(=O)c2ccc(NC(=O)c3ccccn3)cc2OC[C@@H](C)N(Cc2ccccn2)C[C@H]1C`: 7.1 µM; for `Cc1cccc(Nc2nc(-c3ccccn3)cs2)n1`: 6.95 µM; for `COc1ccc(NC(=O)CSc2c(C)nn(-c3nnc(C)c(=O)[nH]3)c2C)cc1`: 25.2 µM.
The same measure for `Cc1ccc(Cn2cccc(NS(C)(=O)=O)c2=O)cc1`: 64.7 µM.
As for `O=C(NCCCn1ccnc1)Nc1ccc(Cl)c(Cl)c1`, the figure is 25.2 µM; as for `O=C(CSc1nnc(-c2cccnc2)o1)Nc1nccs1`, 17.7 µM.
Consider `C=CCn1c(CNc2ccccc2)nnc1SCC(=O)N/N=C/c1ccc(O)cc1O`, for which the AC50 was 25.1 µM.
The same measure for `CCOc1cc(CNCc2ccccn2)cc(Cl)c1OC`: 39.7 µM.
The same measure for `CCOc1ccc(C(=O)CCNC(Cc2cnc[nH]2)C(=O)O)cc1` (stereo unspecified): 41.2 µM; for `COc1ccc(NC(=O)N[C@@H]2CC[C@H](CCn3cc(-c4ccccn4)nn3)O[C@H]2CO)cc1`: 12.7 µM.
With `COc1ccccc1Nc1nc(N)nc(CN(C)C2CCCCC2)n1`, the AC50 was 37.7 µM.
As for `CCCCC(=O)NC(c1cccc([N+](=O)[O-])c1)c1ccc2cccnc2c1O` (stereo unspecified), the figure is 4.22 µM.
The same measure for `Cc1nnc(NC(=O)c2ccc(S(=O)(=O)N3CC(C)OC(C)C3)cc2)o1` (stereo unspecified): 44.6 µM.
Consider `CC1=C(SCc2ccccc2)C(=O)c2ccccc2C1=O`, for which the AC50 was 39.7 µM.
As for `COc1cc(-c2nnc(NC(=O)c3ccco3)o2)cc(OC)c1OC`, the figure is 66.9 µM; as for `O=C(Nc1nc(-c2ccccn2)cs1)C12CC3CC(CC(O)(C3)C1)C2`, 6.45 µM; as for `O=C(CN1CC(=O)Oc2ccccc21)NCc1ccco1`, 2.05 µM.
The same measure for `O=C(N/N=C/c1c(O)ccc2ccccc12)c1ccc(CO)nc1`: 10.8 µM; for `O=C(CN1C(=O)COc2ccccc21)Nc1ccc(F)cc1`: 3.96 µM; for `O=C(CSc1ccc2nnc(-c3ccccn3)n2n1)Nc1nccs1`: 11.2 µM.
The same measure for `c1ccc(-c2cn3c(n2)CCc2ccc4cccnc4c2-3)cc1`: 21.2 µM; for `c1ccc(-c2nc3cc4ccccc4cc3[nH]2)nc1`: 32.7 µM.
Turning to `O=C(COC(=O)c1ccc(O)cc1O)Nc1nnc(-c2ccccc2)o1`, the AC50 is 13.7 µM.
The same measure for `c1ccc(-c2nnc(-c3ccccn3)nc2Nc2nc3ccccc3s2)cc1`: 0.509 µM; for `COc1cc(OC)cc(C(=O)Nc2nnc(-c3cccnc3)o2)c1`: 20.8 µM; for `Cc1cccc(C(=O)Nc2nnc(-c3ccncc3)o2)c1`: 36.5 µM.
The same measure for `O=C(CSc1ccc(-c2ccccn2)nn1)Nc1cccc(F)c1`: 1.16 µM.
The same measure for `O=C(CCS(=O)(=O)c1ccc(F)cc1)Nc1nc(-c2ccccn2)cs1`: 6.22 µM.
As to `O=C(CNCc1ccccn1)Nc1ccc([N+](=O)[O-])cc1C(=O)Nc1ccccc1F`, the AC50 is 3.05 µM.
